Measurements as given in patent US20100210602A1, “PhoU (PerF), A P[…] INVOLVED IN [sequence] FORMATION AND TOLERANCE TO MULTIPLE ANTIBIOTICS AND [sequence] AS A DRUG TARGET FOR [sequence] BACTERIA” (priority 2006, published 2010).
Values after ≈ are worked out from the molar mass of the structure shown. Where two headings read alike, the source gives them in different places.

Assays:
Format in all cases: cell-based, M. tuberculosis
[1] = tested on: PhoY2 mutant
[2] = tested on: PhoY1 mutant
[3] = tested on: PhoY2 mutant; remark: listed apart in the source
[4] = tested on: PhoY1 mutant; remark: listed apart in the source
[5] = tested on: PhoY1 mutant; remark: listed apart in the source
[6] = tested on: PhoY2 mutant; remark: listed apart in the source

SMILES | PhoY2 MIC [1] | PhoY1 MIC [2] | PhoY2 MIC ([1]; pH 5.6) | MBC ([3]; pH 5.9) | MIC ([3]; pH 5.9) | MBC ([4]; pH 5.9) | MIC ([4]; pH 5.9) | CFU/ml 3 day ([5]; 200 μg/ml) | CFU/ml 9 day ([5]; 200 μg/ml) | PhoY1 MIC ([2]; pH 5.6) | CFU/ml 3 day ([6]; 200 μg/ml) | CFU/ml 9 day ([6]; 200 μg/ml) | MBC [3] | MIC [3] | MBC [4] | MIC [4] | CFU/ml 3 day ([5]; 8 μg/ml) | CFU/ml 9 day ([5]; 8 μg/ml) | CFU/ml 3 day ([6]; 8 μg/ml) | CFU/ml 9 day ([6]; 8 μg/ml)
NNC(=O)c1ccncc1 [INH, isoniazid] | 0.1 µg/mL | 0.1 µg/mL | – | – | – | – | – | – | – | – | – | – | – | – | – | – | – | – | – | –
NC(=O)c1cnccn1 [PZA, pyrazinamide] | – | – | 100 µg/mL | 400 µg/mL (≈ 3250 µM) | 100 µg/mL (≈ 812 µM) | 400 µg/mL (≈ 3250 µM) | 200 µg/mL (≈ 1620 µM) | 4.3 × 10^5 CFU/ml | 3.3 × 10^3 CFU/ml | 200 µg/mL | 4.83 × 10^5 CFU/ml | <10^2 CFU/ml | – | – | – | – | – | – | – | –
CO[C@H]1/C=C/O[C@@]2(C)Oc3c(C)c(O)c4c(O)c(c(/C=N/N5CCN(C)CC5)c(O)c4c3C2=O)NC(=O)/C(C)=C\C=C\[C@H](C)[C@H](O)[C@@H](C)[C@@H](O)[C@@H](C)[C@H](OC(C)=O)[C@@H]1C [RIF, rifampin] | 0.1 µg/mL | 0.1 µg/mL | – | – | – | – | – | – | – | – | – | – | 0.05 µg/mL (≈ 0.0608 µM) | 0.025 µg/mL (≈ 0.0304 µM) | 0.2 µg/mL (≈ 0.243 µM) | 0.05 µg/mL (≈ 0.0608 µM) | 4.97 × 10^5 CFU/ml | 3.13 × 10^4 CFU/ml | 2.27 × 10^5 CFU/ml | <10^2 CFU/ml
